What was measured:
[1] = system: H358 3D spheroids; assay: H358 spheroid size/area; format: cell-based; conditions: 0.1 μM AMG 510
[2] = system: EVs secreted by H358 cells; assay: Nanoparticle Tracking Analysis of EV size, ExoTIC isolation; format: cell-based; conditions: ExoTIC-isolated EVs, H358, AMG 510 treatment
From the text: To characterize exRNA profiles, EVs were isolated using two orthogonal approaches: affinity column extraction (ExoRNeasy) and size-based filtration (Exosome Total Isolation Chip: ExoTIC). Each EV isolation method captured distinct EV populations as determined by Nanoparticle Tracking Analysis (NTA) (FIGS. 5A and 5B) 18.19. The ExoTIC platform captured a low yield of EVs that fell within a size range matching that of exosomes (FIG. 5A).
The exRNA landscape varies based on EV subpopulations isolated by different approaches. We sought to investigate two orthogonal approaches to EV isolation, which yielded distinct EV populations with variable exRNA content. This highlights the importance of upstream EV isolation procedures before the exRNA sequencing pipeline. […] The significant shift in the maxima of the EV size distribution corresponding to AMG 510 treatment was accompanied by local maxima around particles of even smaller dimensions. Further EV size-fractionated exRNA sequencing will be necessary to determine the contribution of the different EV subpopulations to our exRNA data.
RNA Isolation & Purification. Total bulk RNA was isolated from H358 cells using Quick-RNA Mini-Prep kit (Zymogen). All RNA was quantified via NanoDrop-8000 Spectrophotometer. […] Extracted exosomal RNA were quantified via Qubit RNA HS assay kit (Thermo). […]

[3] = system: KRAS and phosphorylated ERK in NCI-H358 cells; conditions: cited from earlier work

Row | Structure (SMILES) | decrease of 3D spheroid size with respect to control [1] | EV size profile after treatment [2] | time at which abundance of KRAS and pERK begin to recover [3]
1 | C=CC(=O)N1CCN(c2nc(=O)n(-c3c(C)ccnc3C(C)C)c3nc(-c4c(O)cccc4F)c(F)cc23)[C@@H](C)C1 [AMG 510, Sotorasib] | 20% | around 150 nm | –
2 | C=CC(=O)N1CCN(c2ncnc3c(F)c(-c4c(O)cccc4F)c(Cl)cc23)CC1 [ARS1620] | – | – | 24 hours

Reference: US20250011876A1, “EXTRACELLULAR RNA SIGNATURES OF MUTANT KRAS(G12C) CANCERS” (The Regents of the University of California, priority 2021, published 2025)
